Experiments:
hIL-6 mRNA = experiment: Inhibition of hIL-6 mRNA transcription in LPS-stimulated U937 cells; format: cell-based; conditions: Homo sapiens, U-937; PMA-differentiated U937 cells, 1 h pretreatment, 1 ug/mL LPS stimulation, 3 h; read-out: IL-6 activity (Inhibition of hIL-6 mRNA Transcription)
Summary of the method: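 U937 cells differentiated 3 days with 60 ng/mL PMA, pretreated 1 h with compound (0.1% DMSO), then stimulated with 1 ug/mL E. coli LPS for 3 h at 37 °C. hIL-6 mRNA measured by one-step TaqMan RT-qPCR, normalized to cyclophilin. Fold expression relative to control; triplicate wells.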

[1] = target: T1, Brd4 bromodomain 1 (BRD4(1)) (Homo sapiens, UniProt O60885); experiment: Inhibition of tetra-acetylated histone H4 binding to Brd4 bromodomain 1 (TR-FRET); conditions: tetra-acetylated histone H4 peptide, first bromodomain of Brd4
T1 construct: made in house; host or cells: E. coli BL21(DE3)
Summary of the method: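 His-tagged BRD4(1) from E. coli (200 nM) with biotinylated tetra-acetylated H4 peptide (25-50 nM), Eu-cryptate streptavidin and XL665 anti-His, in HEPES pH 7.4/phosphate/KF buffer, 0.2% DMSO. After 2 h at room temperature, TR-FRET 665/620 nm ratio read; IC50 from dose-response curves.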

human AML MV-4-11 cells = experiment: Inhibition of cell proliferation in MV4-11 cells (CellTiter Aqueous One); format: cell-based; conditions: MV4-11, 72 h
Summary of the method: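 Exponentially growing MV-4-11 cells (5×10^4/well) were treated immediately with two-fold dilutions of compound from 30 μM to 0.2 μM, in triplicate, for 72 h at 37° C, 5% CO2. Viability was measured by MTS absorbance at 490 nm after 3–4 h. Proliferation relative to DMSO after blank correction gave IC50.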

c-myc = experiment: Inhibition of c-myc expression (mRNA, real-time PCR) in MV4-11 cells; format: cell-based; conditions: Human AML MV4-11 cells, 3 h, cMYC mRNA
Summary of the method: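 MV4-11 cells treated 3 h at 37° C with increasing compound concentrations or 0.1% DMSO, in triplicate. cMYC mRNA quantified by one-step TaqMan real-time PCR, Ct normalized to internal control (Cyclophilin primers used), fold expression relative to control.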

hIL-17 mRNA = experiment: Inhibition of hIL-17 mRNA transcription in OKT3-stimulated peripheral blood mononuclear cells; format: cell-based; conditions: PBMC, human peripheral blood mononuclear cells, OKT3 antibody, 6 h, read-out: IL-17 activity
Experimental: In this example, hIL-17 mRNA in human peripheral blood mononuclear cells was quantitated to measure the transcriptional inhibition of hIL-17 when treated with a compound of the invention.
Human peripheral blood mononuclear cells were plated (2.0×10^5 cells per well) in a 96-well plate in 45 μL OpTimizer T Cell expansion media containing 20 ng/ml IL-2 and penicillin/streptomycin. The cells were treated with the test compound (45 μL at 2× concentration), and then the cells were incubated at 37° C. for 1 h before addition of 10× stock OKT3 antibody at 10 μg/ml in media. Cells were incubated at 37° C. for 6 h before the cells were harvested. At time of harvest, cells were centrifuged (800 rpm, 5 min). Spent media was removed and cell lysis solution (70 μL) was added to the cells in each well and incubated for 5-10 min at room temperature, to allow for complete cell lysis and detachment. mRNA was then prepared using the “mRNA Catcher PLUS plate” (Invitrogen), according to the protocol supplied. After the last wash, as much wash buffer as possible was aspirated without allowing the wells to dry. Elution buffer (E3, 70 μL) was then added to each well. mRNA was then eluted by incubating the mRNA Catcher PLUS plate with Elution Buffer for 5 min at 68° C. and then immediately placing the plate on ice.
The eluted mRNA isolated was then used in a one-step quantitative RT-PCR reaction, using components of the Ultra Sense Kit together with Applied Biosystems primer-probe mixes. Real-time PCR data was analyzed, normalizing the Ct values for hIL-17 to an internal control, prior to determining the fold induction of each unknown sample, relative to the control.

| SMILES | IC50 (hIL-6 mRNA) | IC50 [1] | IC50 (human AML MV-4-11 cells) | IC50 (c-myc) | IC50 (hIL-17 mRNA) |
| --- | --- | --- | --- | --- | --- |
| CCNc1nc2c([N+](=O)[O-])cc(-c3c(C)noc3C)cc2n1Cc1ccccc1 [Example Compound 18, 1-benzyl-6-(3,5-dimethylisoxazol-4-yl)-N-ethyl-4-nitro-1H-benzo[d]imidazol-2-amine] | 0.3 to 3 µM | ≤ 0.3 µM | ≤ 0.3 µM | ≤ 0.3 µM | 0.3 to 3 µM |
| Cc1noc(C)c1-c1cnc2ncn(C(C)c3ccccc3)c2c1 (centres unmarked) [Example Compound 30] | 0.3 to 3 µM | ≤ 0.3 µM | 0.3 to 3 µM | 0.3 to 3 µM | 0.3 to 3 µM |
| Cc1noc(C)c1-c1cnc2ncn(Cc3ccc(F)cc3)c2c1 [Example Compound 45, 4-(1-(4-fluorobenzyl)-1H-imidazo[4,5-b]pyridin-6-yl)-3,5-dimethylisoxazole] | 0.3 to 3 µM | ≤ 0.3 µM | 0.3 to 3 µM | 0.3 to 3 µM | 0.3 to 3 µM |
| Cc1noc(C)c1-c1cnc2cnn(Cc3ccc(F)cc3)c2c1 [Example Compound 51, 4-(1-(4-fluorobenzyl)-1H-pyrazolo[4,3-b]pyridin-6-yl)-3,5-dimethylisoxazole] | 0.3 to 3 µM | ≤ 0.3 µM | 0.3 to 3 µM | 0.3 to 3 µM | 0.3 to 3 µM |
| Cc1noc(C)c1-c1cnc2[nH]c(=O)n(Cc3ccc(Cl)cc3)c2c1 [compound 105, 1-(4-chlorobenzyl)-6-(3,5-dimethylisoxazol-4-yl)-1H-imidazo[4,5-b]pyridin-2(3H)-one] | 0.3 to 3 µM | ≤ 0.3 µM | 0.3 to 3 µM | 0.3 to 3 µM | 0.3 to 3 µM |
| Cc1noc(C)c1-c1cnc2[nH]c(=O)n(Cc3cccs3)c2c1 [compound 106, 6-(3,5-dimethylisoxazol-4-yl)-1-(thiophen-2-ylmethyl)-1H-imidazo[4,5-b]pyridin-2(3H)-one] | 0.3 to 3 µM | ≤ 0.3 µM | 0.3 to 3 µM | 0.3 to 3 µM | 0.3 to 3 µM |
| Cc1noc(C)c1-c1cnc2[nH]c(=O)n(C(C)c3ccccc3)c2c1 (centres unmarked) [compound 112, 6-(3,5-dimethylisoxazol-4-yl)-1-(1-phenylethyl)-1H-imidazo[4,5-b]pyridin-2(3H)-one] | 0.3 to 3 µM | ≤ 0.3 µM | 0.3 to 3 µM | ≤ 0.3 µM | ≤ 0.3 µM |

Continued, values first:

| IC50 (hIL-6 mRNA) | IC50 [1] | IC50 (human AML MV-4-11 cells) | IC50 (c-myc) | IC50 (hIL-17 mRNA) | SMILES |
| --- | --- | --- | --- | --- | --- |
| ≤ 0.3 µM | ≤ 0.3 µM | 0.3 to 3 µM | 0.3 to 3 µM | ≤ 0.3 µM | Cc1noc(C)c1-c1cnc2[nH]c(=O)n(Cc3ccccc3)c2c1 [Example Compound 10, 1-Benzyl-6-(3,5-dimethylisoxazol-4-yl)-1H-imidazo[4,5-b]pyridin-2(3H)-one] |
| ≤ 0.3 µM | ≤ 0.3 µM | 0.3 to 3 µM | 0.3 to 3 µM | 0.3 to 3 µM | Cc1noc(C)c1-c1cnc2nc(C)n(Cc3ccccc3)c2c1 [Example Compound 13, 4-(1-benzyl-2-methyl-1H-imidazo[4,5-b]pyridin-6-yl)-3,5-dimethylisoxazole] |
| ≤ 0.3 µM | ≤ 0.3 µM | ≤ 0.3 µM | ≤ 0.3 µM | 0.3 to 3 µM | Cc1noc(C)c1-c1cc(N)c2[nH]c(=O)n(Cc3ccccc3)c2c1 [Example Compound 16, 4-amino-1-benzyl-6-(3,5-dimethylisoxazol-4-yl)-1H-benzo[d]imidazol-2(3H)-one] |
| ≤ 0.3 µM | ≤ 0.3 µM | ≤ 0.3 µM | ≤ 0.3 µM | ≤ 0.3 µM | CCNc1nc2c(N)cc(-c3c(C)noc3C)cc2n1Cc1ccccc1 [Example Compound 19, 1-benzyl-6-(3,5-dimethylisoxazol-4-yl)-N^2-ethyl-1H-benzo[d]imidazole-2,4-diamine] |
| ≤ 0.3 µM | ≤ 0.3 µM | ≤ 0.3 µM | ≤ 0.3 µM | ≤ 0.3 µM | Cc1noc(C)c1-c1cc(N)c2nc(C)n(Cc3ccccc3)c2c1 [Example Compound 55, 1-benzyl-6-(3,5-dimethylisoxazol-4-yl)-2-methyl-1H-benzo[d]imidazol-4-amine] |
| ≤ 0.3 µM | ≤ 0.3 µM | 0.3 to 3 µM | ≤ 0.3 µM | ≤ 0.3 µM | CC(=O)Nc1cc(-c2c(C)noc2C)cc2c1nc(C)n2Cc1ccccc1 [Example Compound 64, N-(1-benzyl-6-(3,5-dimethylisoxazol-4-yl)-2-methyl-1H-benzo[d]imidazol-4-yl)acetamide] |

Source: patent US10363257B2 (ZENITH EPIGENETICS LTD., priority 2013, dated 2019)
